Measurements taken from patent US20200361871A1 (Enterprise Therapeutics Ltd., priority 2018, published 2020).

These molecules were tested against human TMEM16A (TMEM16Aabc variant) (Homo sapiens, UniProt Q5XXA6, DEL476-501, form not given) (assay: Automated whole-cell patch clamp (Qpatch) TMEM16A potentiator assay in FRT cells stably expressing human TMEM16A). Settings: 3.33 μM solution of test compound; percentage increase of baseline TMEM16A current.
Format: cell-based
Summary of the method: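 FRT cells stably expressing human TMEM16Aabc were recorded by automated whole-cell patch clamp, with intracellular Ca2+ buffered for ~EC20 activation, holding −70 mV and step to +70 mV at 0.05 Hz. Compound was applied cumulatively, 5 min per concentration. Peak current increase as % of baseline was fitted to give EC50 and maximum efficacy.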

Sequence of human TMEM16A (TMEM16Aabc variant) (Q5XXA6 with tags, fused parts or gaps DEL476-501): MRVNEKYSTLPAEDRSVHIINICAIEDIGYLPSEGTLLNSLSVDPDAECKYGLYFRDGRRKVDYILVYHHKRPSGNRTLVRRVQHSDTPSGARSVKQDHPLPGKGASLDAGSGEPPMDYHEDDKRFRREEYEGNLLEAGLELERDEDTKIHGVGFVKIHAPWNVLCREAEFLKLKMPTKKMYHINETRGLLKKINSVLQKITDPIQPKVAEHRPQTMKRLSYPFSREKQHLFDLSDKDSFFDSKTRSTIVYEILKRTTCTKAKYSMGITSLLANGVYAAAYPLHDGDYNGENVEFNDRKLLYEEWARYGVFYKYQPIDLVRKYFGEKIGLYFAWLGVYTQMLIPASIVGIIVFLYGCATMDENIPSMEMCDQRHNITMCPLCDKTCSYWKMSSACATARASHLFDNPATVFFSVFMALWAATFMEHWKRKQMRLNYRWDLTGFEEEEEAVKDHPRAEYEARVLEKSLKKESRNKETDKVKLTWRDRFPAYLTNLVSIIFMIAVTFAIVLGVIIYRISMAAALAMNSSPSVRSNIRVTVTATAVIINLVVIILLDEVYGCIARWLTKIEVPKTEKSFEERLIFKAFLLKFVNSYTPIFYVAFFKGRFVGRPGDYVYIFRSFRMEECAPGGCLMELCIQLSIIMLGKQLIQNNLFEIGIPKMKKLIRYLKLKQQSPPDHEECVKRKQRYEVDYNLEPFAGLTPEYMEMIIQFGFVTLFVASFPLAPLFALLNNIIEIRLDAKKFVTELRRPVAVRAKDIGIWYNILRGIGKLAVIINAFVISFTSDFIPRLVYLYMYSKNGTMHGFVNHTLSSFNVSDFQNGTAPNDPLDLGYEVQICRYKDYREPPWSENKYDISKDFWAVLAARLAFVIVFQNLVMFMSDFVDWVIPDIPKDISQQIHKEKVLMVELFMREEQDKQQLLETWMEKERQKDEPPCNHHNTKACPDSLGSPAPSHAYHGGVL

Compound	% Potentiation @ 3.33 μM Avg
CC(C)NC(=O)c1cc(NC(=O)Cc2cc(F)ccc2O)ccn1 [Example 81.2, 4-[[2-(5-Fluoro-2-hydroxy-phenyl)acetyl]amino]-N-isopropyl-pyridine-2-carboxamide]	103%
C#CC(C)(C)NC(=O)c1cc(NC(=O)Cc2cc(F)ccc2O)ccn1 [Example 81.3, N-(1,1-Dimethylprop-2-ynyl)-4-[[2-(5-fluoro-2-hydroxy-phenyl)acetyl]amino] pyridine-2-carboxamide]	129%
O=C(Cc1cc(F)ccc1O)Nc1ccnc(C(=O)NC23CCC(F)(C2)C3)c1 [Example 81.4, N-(4-Fluoro-1-bicyclo[2.1.1]hexanyl)-4-[[2-(5-fluoro-2-hydroxy-phenyl)acetyl]amino] pyridine-2-carboxamide]	122%
O=C(Cc1cc(F)ccc1O)Nc1ccnc(C(=O)NC2(CO)CCC2)c1 [Example 81.5, 4-[[2-(5-Fluoro-2-hydroxy-phenyl)acetyl]amino]-N-[1-(hydroxymethyl)cyclobutyl] pyridine-2-carboxamide]	74%
COc1ccc(Cl)cc1CC(=O)Nc1cc(C(=O)NC(C)(C)C)ncn1 [Example 82, N-tert-Butyl-6-[[2-(5-chloro-2-methoxy-phenyl)acetyl]amino]pyrimidine-4-carboxamide]	88%
CC(C)(C#N)NC(=O)c1cc(NC(=O)c2ccsc2)ccn1 [Example 83, N-(1-Cyano-1-methyl-ethyl)-4-(thiophene-3-carbonylamino)pyridine-2-carboxamide]	6%
CC(C)(C#N)NC(=O)c1cc(NC(=O)CC2CCCCC2)ccn1 [Example 83.1, N-(1-Cyano-1-methyl-ethyl)-4-[(2-cyclohexylacetyl)amino]pyridine-2-carboxamide]	159%
CC(C)(C#N)NC(=O)c1cc(NC(=O)C2CCCCC2)ccn1 [Example 83.2, N-(1-Cyano-1-methyl-ethyl)-4-(cyclohexanecarbonylamino)pyridine-2-carboxamide]	41%
CC(C)(C#N)NC(=O)c1cc(NC(=O)C2CCC(F)(F)C2)ccn1 (stereo not shown) [Example 83.3, N-(1-Cyano-1-methyl-ethyl)-4-[(3,3-difluorocyclopentanecarbonyl)amino]pyridine-2-carboxamide]	16%
CC(C)(C#N)NC(=O)c1cc(NC(=O)C2(C)CCCC2)ccn1 [Example 83.4, N-(1-Cyano-1-methyl-ethyl)-4-[(1-methylcyclopentanecarbonyl)amino]pyridine-2-carboxamide]	58%
CC(C)(C#N)NC(=O)c1cc(NC(=O)CCC2CCCCC2)ccn1 [Example 83.5, N-(1-Cyano-1-methyl-ethyl)-4-(3-cyclohexylpropanoylamino)pyridine-2-carboxamide]	185%
CC(C)(C#N)NC(=O)c1cc(NC(=O)CC2CC3CCC2C3)ccn1 (stereo not shown) [Example 83.6, 4-(2-{Bicyclo[2.2.1]heptan-2-yl}acetamido)-N-(1-cyano-1-methylethyl)pyridine-2-carboxamide]	248%
CC1(CC(=O)Nc2ccnc(C(=O)NC(C)(C)C#N)c2)CCCCC1 [Example 83.7, N-(1-Cyano-1-methyl-ethyl)-4-[[2-(1-methylcyclohexyl)acetyl]amino]pyridine-2-carboxamide]	147%
CC(C)(C#N)NC(=O)c1cc(NC(=O)c2cnc(C3CC3)nc2)ccn1 [Example 83.8, N-[2-[(1-Cyano-1-methyl-ethyl)carbamoyl]-4-pyridyl]-2-cyclopropyl-pyrimidine-5-carboxamide]	35%
CC(C)Cc1cc(C(=O)Nc2ccnc(C(=O)NC(C)(C)C#N)c2)on1 [Example 83.9, N-[2-[(1-Cyano-1-methyl-ethyl)carbamoyl]-4-pyridyl]-3-isobutyl-isoxazole-5-carboxamide]	18%
CC(C)(C#N)NC(=O)c1cc(NC(=O)CC2CCC(F)(F)CC2)ccn1 [Example 83.10, N-(1-Cyano-1-methyl-ethyl)-4-[[2-(4,4-difluorocyclohexyl)acetyl]amino]pyridine-2-carboxamide]	62%
CC(C)(C#N)NC(=O)c1cc(NC(=O)C2(Cc3ccccc3)CC2)ccn1 [Example 83.11, 4-[(1-Benzylcyclopropanecarbonyl)amino]-N-(1-cyano-1-methyl-ethyl)pyridine-2-carboxamide]	13%
COc1cc(CCC(=O)Nc2ccnc(C(=O)NC(C)(C)C#N)c2)ccn1 [Example 83.13, N-(1-Cyano-1-methyl-ethyl)-4-[3-(2-methoxy-4-pyridyl)propanoylamino]pyridine-2-carboxamide]	-1%
Cn1nc(C(C)(C)C)cc1C(=O)Nc1ccnc(C(=O)NC(C)(C)C#N)c1 [Example 83.14, 4-[(5-tert-Butyl-2-methyl-pyrazole-3-carbonyl)amino]-N-(1-cyano-1-methyl-ethyl)pyridine-2-carboxamide]	70%
CC(C)(C#N)NC(=O)c1cc(NC(=O)c2ccccc2-n2cccn2)ccn1 [Example 83.15, N-(1-Cyano-1-methyl-ethyl)-4-[(2-pyrazol-1-ylbenzoyl)amino]pyridine-2-carboxamide]	-10%
CC(C)(C#N)NC(=O)c1cc(NC(=O)c2cccc(C(F)(F)F)n2)ccn1 [Example 83.16, N-[2-[(1-Cyano-1-methyl-ethyl)carbamoyl]-4-pyridyl]-6-(trifluoromethyl)pyridine-2-carboxamide]	60%
CC(C)(C#N)NC(=O)c1cc(NC(=O)c2ccc3c(c2)OCC(=O)N3)ccn1 [Example 83.17, N-[2-[(1-Cyano-1-methyl-ethyl)carbamoyl]-4-pyridyl]-3-oxo-4H-1,4-benzoxazine-7-carboxamide]	8%
CCn1c(C(=O)Nc2ccnc(C(=O)NC(C)(C)C#N)c2)cc2ccccc21 [Example 83.18, N-[2-[(1-Cyano-1-methyl-ethyl)carbamoyl]-4-pyridyl]-1-ethyl-indole-2-carboxamide]	16%
CC(C)(C#N)NC(=O)c1cc(NC(=O)c2ccnn2CC(F)(F)F)ccn1 [Example 83.19, N-(1-Cyano-1-methyl-ethyl)-4-[[2-(2,2,2-trifluoroethyl)pyrazole-3-carbonyl]amino]pyridine-2-carboxamide]	28%
CC(C)(C#N)NC(=O)c1cc(NC(=O)c2conc2-c2ccccc2)ccn1 [Example 83.20, N-[2-[(1-Cyano-1-methyl-ethyl)carbamoyl]-4-pyridyl]-3-phenyl-isoxazole-4-carboxamide]	9%
CC(C)(C#N)NC(=O)c1cc(NC(=O)c2cnn(Cc3ccccc3)c2)ccn1 [Example 83.21, 4-[(1-Benzylpyrazole-4-carbonyl)amino]-N-(1-cyano-1-methyl-ethyl)pyridine-2-carboxamide]	70%
Cn1nc(-c2ccccc2)cc1C(=O)Nc1ccnc(C(=O)NC(C)(C)C#N)c1 [Example 83.22, N-(1-Cyano-1-methyl-ethyl)-4-[(2-methyl-5-phenyl-pyrazole-3-carbonyl)amino]pyridine-2-carboxamide]	85%

Same assay, conditions: calculated EC50, Qpatch TMEM16A current at +70 mV

Compound	EC50
CC(C)NC(=O)c1cc(NC(=O)Cc2cc(F)ccc2O)ccn1 [Example 81.2, 4-[[2-(5-Fluoro-2-hydroxy-phenyl)acetyl]amino]-N-isopropyl-pyridine-2-carboxamide]	420 nM
C#CC(C)(C)NC(=O)c1cc(NC(=O)Cc2cc(F)ccc2O)ccn1 [Example 81.3, N-(1,1-Dimethylprop-2-ynyl)-4-[[2-(5-fluoro-2-hydroxy-phenyl)acetyl]amino] pyridine-2-carboxamide]	40 nM
O=C(Cc1cc(F)ccc1O)Nc1ccnc(C(=O)NC23CCC(F)(C2)C3)c1 [Example 81.4, N-(4-Fluoro-1-bicyclo[2.1.1]hexanyl)-4-[[2-(5-fluoro-2-hydroxy-phenyl)acetyl]amino] pyridine-2-carboxamide]	40 nM
COc1ccc(Cl)cc1CC(=O)Nc1cc(C(=O)NC(C)(C)C)ncn1 [Example 82, N-tert-Butyl-6-[[2-(5-chloro-2-methoxy-phenyl)acetyl]amino]pyrimidine-4-carboxamide]	720 nM
